Earlier results in patent US20120114757A1, “PARTICLES COMPRISING DROSPIRENONE ENCAPSULATED IN A POLYMER” (BAYER PHARMA AKTIENGESELLSCHAFT, priority 2009, published 2012).

SMILES: C[C@]12CCC(=O)C=C1[C@@H]1C[C@@H]1[C@H]1[C@@H]3[C@@H]4C[C@@H]4[C@@]4(CCC(=O)O4)[C@@]3(C)CC[C@@H]12 [Drospirenone, 6β,7β;15β,16β-dimethylene-3-oxo-17α-pregn-4-ene-21,17-carbolactone]
- stability under acid conditions (acid conditions): rearranged to an inactive isomer
- solubility in water and aqueous buffers (various pH values): sparingly soluble
